Values joined by “and” are separate entries in the source; they are usually repeats but may differ in a detail not shown here. Equal values may be shown once.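 Protocol summary: plate cells (96-well), add compound at 5 concentrations, incubate 48 h, interpolate endpoints linearly. Here, GI50 denotes the concentration required for 50% inhibition of growth. TGI marks complete inhibition of growth.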
Columns and labels:
Assay in all cases: NCI anticancer screen, dose series, 48 h
[1] = system: A498 renal
[2] = system: SK-MEL-28 melanoma
[3] = system: MALME-3M melanoma
[4] = system: SW-620 colon
[5] = system: M14 melanoma
[6] = system: 786-0 renal
[7] = system: SK-MEL-5 melanoma
[8] = system: UACC-257 melanoma
[9] = system: NCI-H522 lung
[10] = system: HS 578T breast

Compound	TGI [1]	TGI [2]	TGI [3]	TGI [4]	TGI [5]	TGI [6]	TGI [7]	TGI [8]	TGI [9]	GI50 [1]	GI50 [2]	GI50 [3]	GI50 [4]	GI50 [5]	GI50 [6]	GI50 [7]	GI50 [8]	GI50 [9]	GI50 [10]	TGI [10]
CCOC(=O)CC1=NC(=Nc2cc(Cl)ccc2Cl)SC1	> 100 µM	> 100 µM	> 100 µM	> 100 µM	> 100 µM	> 100 µM	> 100 µM	> 100 µM	> 100 µM	–	–	–	–	–	–	–	–	–	–	–
CCOC(=O)C1=C(NC(C)(C)C)OCC1=O	–	> 100 µM	> 100 µM	> 100 µM	> 100 µM	> 100 µM	–	> 100 µM	> 100 µM	–	–	–	–	–	–	–	–	–	–	–
COc1ccc(CCNCc2cccc(OC)c2OC)cc1OC	–	> 100 µM	> 100 µM	> 100 µM	> 100 µM	> 100 µM	> 100 µM	> 100 µM	> 100 µM	–	–	–	–	–	–	–	–	–	–	–
COc1cc(/C=C2\CC3C4CC=C5C[C@@H](N6CCCC6)CC[C@]5(C)C4CC[C@]3(C)[C@H]2OC(C)=O)ccc1OCCN1CCCCC1 (stereo partly drawn)	3.41 µM	4.8 µM	0.529 µM	2.09 µM	3 µM	1.89 µM	2.87 µM	3.91 µM	3.24 µM	1.76 µM	2.31 µM	0.164 µM	0.777 µM	1.58 µM	0.217 µM	1.53 µM	1.93 µM	1.67 µM	–	–
O=C(N/C(=C\c1ccc(Br)cc1)c1nc2ccccc2s1)c1ccccc1	> 100 µM	> 100 µM	> 100 µM	> 100 µM	> 100 µM	> 100 µM	> 100 µM	> 100 µM	> 100 µM	–	–	–	–	–	–	–	–	–	–	–
Cc1[nH]nc2c1N=C(c1ccccc1F)c1cc(C#N)ccc1N2	1.08 µM	> 23.5 µM	> 25 µM	–	–	7.27 µM	9.39 µM	> 25 µM	11.1 µM	0.146 µM	6.5 µM	14.7 µM	–	–	0.801 µM	0.0971 µM	9.71 µM	3.72 µM	0.122 µM	3.83 µM
COC(=O)C1=C(c2cc(OC)c(OC)c(OC)c2)OC(c2cc(OC)c(OC)c(OC)c2)C1COC(C)=O (stereo not drawn)	> 100 µM	> 100 µM	> 100 µM	> 100 µM	> 100 µM	> 100 µM	97.8 µM	> 100 µM	> 100 µM	–	–	–	–	–	–	–	–	–	–	–
O=C1OC(c2ccccc2)=N/C1=C\c1c(O)cc(O)cc1O	> 100 µM	> 100 µM	> 100 µM	> 100 µM	> 100 µM	> 100 µM	> 100 µM	> 100 µM	> 100 µM	–	–	–	–	–	–	–	–	–	–	–
COc1ccc(NC(=O)Nc2ccc(Nc3nc(C)cc(Nc4ccc(C)cc4)n3)cc2)cc1	18.8 µM	3.14 µM	3.58 µM	–	3.72 µM	0.702 µM	2.96 µM	3.69 µM	4.42 µM	7.29 µM	1.51 µM	1.83 µM	–	1.77 µM	0.253 µM	1.6 µM	1.89 µM	1.93 µM	2.22 µM	5.4 µM
O=C(O)c1ccc(N=Nc2cc(S(=O)(=O)O)c3cccnc3c2O)cc1	> 100 µM	> 100 µM	> 100 µM	> 100 µM	–	> 100 µM	> 100 µM	> 100 µM	–	–	–	–	–	–	–	–	–	–	–	–
CCc1ccccc1-n1c2nc(=O)n(C)c(=O)c-2nc2ccccc21	32.5 µM	–	18.2 µM	27.3 µM	20.8 µM	30.5 µM	16.8 µM	18.6 µM	27.3 µM	–	–	–	–	–	–	–	–	–	–	–
O=C(Nc1cccc(C(F)(F)F)c1)c1cccc(NC2=C(Cl)C(=O)N(Cc3ccccc3)C2=O)c1	90.7 µM	> 100 µM	–	> 100 µM	14.3 µM	> 100 µM	38.2 µM	38.5 µM	23.5 µM	40.3 µM	45.1 µM	–	38.4 µM	3.68 µM	27.4 µM	18 µM	12.4 µM	4.88 µM	43.8 µM	> 100 µM
CC(=O)OCC(OC(C)=O)C(OC(C)=O)C(OC(C)=O)C(=O)CNn1c(-c2ccccc2)nc2ccc(Br)cc2c1=O (stereo not drawn)	> 100 µM	> 100 µM	> 100 µM	> 100 µM	> 100 µM	> 100 µM	> 100 µM	> 100 µM	> 100 µM	–	–	–	–	–	–	–	–	–	–	–
COc1cc(-c2nc(SCC(=O)Nc3ccc(C(C)=O)cc3)[nH]c(=O)c2C#N)cc(OC)c1OC	85 µM	> 100 µM	> 100 µM	> 100 µM	> 100 µM	> 100 µM	> 100 µM	> 100 µM	–	21.3 µM	47.5 µM	48.1 µM	46.7 µM	37.4 µM	41.7 µM	31.9 µM	97.4 µM	–	–	–
C[C@H]1COC2(c3ccccc3)CCC(=O)N12 (stereo partly drawn)	> 100 µM	> 100 µM	> 100 µM	> 100 µM	–	> 100 µM	> 100 µM	> 100 µM	–	–	–	–	–	–	–	–	–	–	–	–
CC(C)CC(CNC(Cc1ccc(Cl)cc1)C(N)=O)NC(=O)C(Cc1cnc[nH]1)NC(=O)CNC(=O)C(NC(=O)C(C)NC(=O)C(Cc1c[nH]c2ccccc12)NC(=O)C(CCC(=O)O)NC(=O)C(N)Cc1ccccc1)C(C)C (stereo not drawn)	> 133 µM	> 133 µM	–	> 133 µM	–	> 133 µM	–	> 133 µM	–	–	–	–	–	–	–	–	–	–	–	–
CCN(Cc1nc2cc(C(F)(F)F)ccc2nc1-c1ccccc1)c1ccc(OC)c(OC)c1	20.7 µM	76 µM	–	36.5 µM	29.5 µM	30.3 µM	28 µM	0.793 µM	34 µM	4.42 µM	25.2 µM	–	16.6 µM	15.4 µM	15.7 µM	13.9 µM	0.0249 µM	14.5 µM	11.4 µM	30 µM
CC(F)(F)c1cc(F)ccc1-c1sc2cc(O)ccc2c1Oc1ccc(/C=C/C(=O)O)cc1	–	18.9 µM	44.4 µM	24.9 µM	25 µM	31.2 µM	15.3 µM	57.5 µM	29 µM	–	5.79 µM	11.6 µM	8.56 µM	4.96 µM	10.2 µM	4.05 µM	14.2 µM	6.23 µM	4.89 µM	32.8 µM
CN(/N=C/c1ccnc2ccccc12)c1ccc([N+](=O)[O-])cc1[N+](=O)[O-]	> 100 µM	> 100 µM	> 100 µM	> 100 µM	> 100 µM	74.6 µM	> 100 µM	> 100 µM	> 100 µM	–	–	–	–	–	–	–	–	–	–	–

Compound	TGI [1]	TGI [2]	TGI [3]	TGI [4]	TGI [5]	TGI [6]	TGI [7]	TGI [8]	TGI [9]	GI50 [1]	GI50 [2]	GI50 [3]	GI50 [4]	GI50 [5]	GI50 [6]	GI50 [7]	GI50 [8]	GI50 [9]	GI50 [10]	TGI [10]
CC[C@@H](C)[C@H]([C@H](CC(=O)N1CCC[C@@H]1[C@@H](OC)[C@H](C)C(=O)N[C@H](Cc1ccccc1)c1nccs1)OC)N(C)C(=O)[C@H](NC(=O)[C@@H](C(C)C)N(C)C)C(C)C	–	> 100 µM	–	–	–	44.1 µM	0.000656 µM	–	0.000351 µM	–	1.26 µM	0.000425 µM	0.000425 µM	–	–	–	0.000425 µM and < 0.0589 µM	6.57e-05 µM	6.95e-05 µM	4.06 µM
O=C(CCC(=O)N/N=C/c1ccccc1O)N/N=C/c1ccccc1O	–	> 100 µM	> 100 µM	> 100 µM	–	> 100 µM	> 100 µM	> 100 µM	> 100 µM	–	–	–	–	–	–	–	–	–	–	–
COc1ccc(/C(Cl)=C(\C=O)c2ccc(Br)cc2)cc1OC	> 100 µM	> 100 µM	> 100 µM	> 100 µM	> 100 µM	> 100 µM	> 100 µM	> 100 µM	> 100 µM	–	–	–	–	–	–	–	–	–	–	–
COc1cc(OC)c(OC)cc1/C=C1\C=Cc2ccccc21	–	47.6 µM	56.8 µM	35.4 µM	–	> 100 µM	26.1 µM	37.7 µM	51.2 µM	–	–	–	–	–	–	–	–	–	–	96.2 µM
COc1ccccc1CNC(=O)C1c2ccccc2C(=O)N(CC(C)C)C1c1cccs1 (stereo not drawn)	51.5 µM	> 100 µM	60.3 µM	> 100 µM	52.7 µM	51.2 µM	28.9 µM	–	–	11.9 µM	30.7 µM	20.7 µM	26.4 µM	19.1 µM	20.3 µM	14.7 µM	–	–	16 µM	60.1 µM
COc1ccc(OC)c(-c2cc(-c3ccccc3)nn2-c2ccc(S(N)(=O)=O)cc2)c1	–	–	–	33.4 µM	16.6 µM	24.6 µM	31.3 µM	31.6 µM	30 µM	–	–	–	12.7 µM	5.38 µM	11.9 µM	16.5 µM	15.2 µM	8.04 µM	18.9 µM	59.1 µM
O=C(CCc1ccccc1)On1nnc2ccccc2c1=O	> 100 µM	–	> 100 µM	> 100 µM	> 100 µM	> 100 µM	> 100 µM	> 100 µM	> 100 µM	–	–	–	–	–	–	–	–	–	–	–
CCOC(=O)c1cc2cc(NC(=O)c3cc4cc([N+](=O)[O-])ccc4n3C)ccc2n1C	–	> 100 µM	–	> 100 µM	> 100 µM	31.9 µM	> 100 µM	> 100 µM	> 100 µM	–	63.6 µM	–	93.5 µM	34.7 µM	17.6 µM	74 µM	46.6 µM	> 100 µM	97.5 µM	> 100 µM
Cc1[nH]c(=O)nc(CC(O)(c2ccccc2)c2ccccc2)c1-c1ccccc1	> 100 µM	> 100 µM	> 100 µM	> 100 µM	> 100 µM	> 100 µM	> 100 µM	> 100 µM	> 100 µM	–	–	–	–	–	–	–	–	–	–	–
NS(=O)(=O)c1ccc(NC(=O)CC(=O)Nc2ccc(S(N)(=O)=O)cc2)cc1	> 100 µM	> 100 µM	> 100 µM	> 100 µM	> 100 µM	> 100 µM	> 100 µM	> 100 µM	> 100 µM	–	–	–	–	–	–	–	–	–	–	–
COc1ccc2[nH]c(-c3cccc(N(C)C)c3)cc(=O)c2c1	–	> 100 µM	> 100 µM	> 100 µM	> 100 µM	> 100 µM	–	> 100 µM	0.526 µM and 2.56 µM	–	0.795 µM	–	0.303 µM	0.325 µM and 0.552 µM	0.539 µM	0.305 µM	0.361 µM	0.407 µM	–	0.509 µM
O=C(CCCNC(=O)OCc1ccccc1)OCc1ccc2c(c1)C(=O)c1ccccc1C2=O	> 100 µM	> 100 µM	> 100 µM	> 100 µM	> 100 µM	> 56.2 µM	> 100 µM	> 100 µM	> 100 µM	–	–	–	–	–	–	–	–	–	–	–
CCc1ccc(/C(C)=N/NC(N)=S)cc1	–	> 100 µM	> 100 µM	–	> 100 µM	> 100 µM	> 100 µM	–	–	–	–	–	–	–	–	–	–	–	–	–
O=C(N=Nc1c(O)[nH]c2c(Cl)cc(Cl)cc12)c1ccncc1	> 100 µM	50.5 µM	32.7 µM	> 100 µM	> 100 µM	36.4 µM	33.4 µM	48.9 µM	–	–	–	–	–	–	–	–	–	–	–	> 100 µM
COc1ccc(/C=C/c2nc(=S)[nH][nH]2)cc1	> 100 µM	> 100 µM	> 100 µM	> 100 µM	> 100 µM	> 100 µM	> 100 µM	> 100 µM	> 100 µM	–	–	–	–	–	–	–	–	–	–	–
N#CCC(=O)N/N=C1/C(=O)NC(=O)C(=O)C1c1nc2ccccc2s1 (stereo not drawn)	> 100 µM	> 100 µM	> 100 µM	> 100 µM	> 100 µM	> 100 µM	> 100 µM	> 100 µM	> 100 µM	–	–	–	–	–	–	–	–	–	–	–
CCOC(=O)c1c(C)n(CC(C)C)c2c1cc1oc(=O)c(=O)n3cnc2c13	41.3 µM	> 50 µM	–	10.6 µM	> 50 µM	> 50 µM	19.8 µM	30.5 µM	> 50 µM	14.2 µM	23.6 µM	–	1.79 µM	16.9 µM	20.1 µM	10.1 µM	11.3 µM	> 50 µM	11.8 µM	38.5 µM
CN(C)c1nc(N(C)C)n2nc(-c3ccccc3[N+](=O)[O-])nc2n1	> 100 µM	> 100 µM	> 100 µM	24.2 µM	> 100 µM	> 100 µM	> 100 µM	> 100 µM	> 100 µM	–	–	–	–	–	–	–	–	–	–	–

— PubChem BioAssay (NCI)
